# Patent US11911396B2, “Use of compound in preparation of drug for treating cerebral small vessel disease” (GUANGZHOU CELLPROTEK PHARMACEUTICAL CO., LTD, priority 2017, dated 2024)
# How the values were obtained:
# Heme Oxygenase-1 (HO-1) = assay: Western blot of HO-1 in prefrontal cortex brain tissue, acute hypobaric hypoxia model; type: in vivo, cynomolgus monkeys; conditions: after hypobaric hypoxia, FIG. 4
# Excerpt: FIG. 4. Triol enhanced the clearance of free hemoglobin in brain tissue by up-regulating CD163 and Heme Oxygenase-1 (HO-1) protein levels. A. Protein expression of hemoglobin scavenger receptor CD163 and heme oxygenase HO-1 in the brain tissue of the prefrontal cortex of cynomolgus monkeys; B. Statistics of protein relative gray scan values. The gray value was obtained by scanning with Image Lab software, and the relative value was obtained after normalizing with α-Tubulin. NN: Normobaric Normoxia group (N=3); HH: Hypobaric Hypoxia group (N=3); HH+Triol: Hypobaric Hypoxia with Triol administration group (N=3); HH+PROG: Hypobaric Hypoxia with progesterone administration group (N=3). […]
# (§1) 1) Preparation of protein samples (see the instructions of M-PER protein lysate): After the cells had been processed for the specified time, the medium was aspirated and then washed with 4° C. pre-chilled PBS (0.01M pH7.2˜7.3) for 3 times. […] 2) BCA protein quantification (see the instructions of BCA protein quantification kit): corresponding components were added to a 96-well detection plate by the ratio of quantification reagent A solution:B solution:ddH2O:protein=100:2:7.5:5, and albumin standards diluted in gradient concentration were added to draw a standard curve. […] After the reaction, the absorbance of each well at a wavelength of 562 nm was detected using a microplate reader. […]
# Iba-1 in microglia BV2 = assay: Western blot of Iba-1 in BV2 cells stimulated with hemoglobin and hypoxia, with or without CD163 RNA interference; type: cell-based; conditions: 10 μM Triol, 20 μM hemoglobin and 1% hypoxia for 6 hours
# Method: (§2) FIG. 7. […] According to the manufacturer's instructions, RNAiMAX was used to transfect CD163 No. 01 and scrambled interference fragment NC respectively to BV2 cells, BV2 cell culture medium was then added with or without 10 μM Triol, and BV2 cells were stimulated with 20 μM hemoglobin and 1% hypoxia for 6 hours, after which protein samples were collected, and the expression of microglial activation markers Iba-1 and CD11b was detected by Western blot.
# as §1, with “times. 150-200 ul of M-PER protein lysate mixed with protease inhibitor (PMSF 100×) was added, which was lysed on ice for 10 minutes to fully lyse the cells.” for “times.”
# CD11b in microglia BV2 = assay: Western blot of CD11b in BV2 cells stimulated with hemoglobin and hypoxia, with or without CD163 RNA interference; type: cell-based; conditions: 10 μM Triol, 20 μM hemoglobin and 1% hypoxia for 6 hours
# Method: as §2
# as §1, with “times. 150-200 ul of M-PER protein lysate mixed with protease inhibitor (PMSF 100×) was added, which was lysed on ice for 10 minutes to fully lyse the cells.” for “times.”
structure (smiles),measurement,setting,value
"C[C@@]12CCCC1C1C[C@@H](O)[C@@]3(O)C[C@@H](O)CC[C@]3(C)C1CC2 (stereo partly drawn) [Triol, 5α-androst-3β,5,6β-triol]",expression of HO-1,Heme Oxygenase-1 (HO-1),further up-regulated
same,effect on the up-regulation of Iba-1 in hypoxia and hemoglobin-activated microglia cells,Iba-1 in microglia BV2; without CD163 interference,inhibitory effect
same,inhibitory effect on the up-regulation of Iba-1 after interfering CD163,"Iba-1 in microglia BV2; CD163 RNA interference, FIG. 7",cancelled
same,effect on the up-regulation of CD11b in hypoxia and hemoglobin-activated microglia cells,CD11b in microglia BV2; without CD163 interference,inhibitory effect
same,inhibitory effect on the up-regulation of CD11b after interfering CD163,"CD11b in microglia BV2; CD163 RNA interference, FIG. 7",cancelled
